Broadly, the inhibition is the change of the read-out against control, counted positive when it falls.

The values below come from ChEMBL document CHEMBL2094260, “Malaria Box Tuberculosis Screening Data”.

For assay [1], the system named is Mycobacterium tuberculosis. Description: MMV: Screen against Mtb, single point, non replicating, at 25uM. It counts as functional.
The test system of assay [2] is Mycobacterium tuberculosis. Description: MMV: Screen against Mtb, single point, replicating, at 25uM. It counts as functional.

Turning to `CCN1CCCC1CNc1[nH]cnc2c3cc(Cl)ccc3nc1-2` (stereo unspecified), the inhibition at 25 µM in assay [1] came out at 4.53%; in assay [2] it was 0.0616%.

On to `CCN(CC)CCNc1ncnc2c1[nH]c1ccc(Cl)cc12`, for which the figures for the inhibition at 25 µM in assay [1] and in assay [2] were 18.1% and 15.4%, respectively.

Consider `CCOC(=O)c1cnc2ccc(CC)cc2c1O`, for which the figures for the inhibition at 25 µM in assay [1] and in assay [2] were 7.14% and 12.5%, respectively.

Regarding `Cc1ccc(-c2cc3c(nn2)-c2ccccc2C3=O)cc1`, the inhibition at 25 µM in assay [1] came to 17.3%; in assay [2], 41.8%.

For the compound `COc1ccc(-n2ccnc2SCC(=O)Nc2cc(C)ccc2C)c(OC)c1`, the inhibition at 25 µM in assay [1] came out at 8.89%; in assay [2], 2.95%.

Turning to `CCN1CCN(Cc2ccc(NC(=O)c3cc4ccc5cccnc5c4[nH]3)cc2)CC1`, the values for the inhibition at 25 µM in assay [1] and in assay [2] were 3.13% and 18.3%, respectively.

As to `c1ccc(-c2ccc(-c3nc4ccccc4[nH]3)cc2)cc1`, the inhibition at 25 µM turned out to be 0.513% in assay [1] and 20.6% in assay [2].

`CCC(C)NCC(O)(c1ccc(Cl)cc1)c1ccc(Cl)cc1` (stereo unspecified): the inhibition at 25 µM is 10.6% in assay [1] and 17.4% in assay [2].

As to `CCC(c1ccccc1)c1nn2c(-c3cccs3)nnc2s1` (stereo unspecified), the inhibition at 25 µM in assay [1] was 20.8%; in assay [2], 19.3%.

For `CCOc1cc2c(cc1OCC)C(c1cc(OC)c(O)cc1Cl)NCC2` (stereo unspecified), the inhibition at 25 µM is 13.6% in assay [1] and 23.3% in assay [2].

As to `COCCNC(=O)c1ccc(OC2CCN(Cc3ccc(F)c(F)c3)CC2)c(Cl)c1`, the inhibition at 25 µM in assay [1] amounted to 14.1%; in assay [2], 12.7%.

As to `COc1cccc(C=Cc2nc(=O)c3ccccc3o2)c1OC`, the results for the inhibition at 25 µM in assay [1] and in assay [2] were 11.5% and 40.6%, respectively.

Take `CCCN(CCC)CC(O)COc1ccccc1C(=O)Nc1ccccc1` (stereo unspecified): the inhibition at 25 µM was 17.1% in assay [1] and 20.9% in assay [2].

As to `COc1ccc(C(=O)Nc2nonc2-c2ccc(OC)c(OC)c2)cc1Cl`, the inhibition at 25 µM in assay [1] amounted to 5.57%; in assay [2], 3.86%.

For `COCCN(C(=O)Cc1cccs1)C(C(=O)NCc1ccc(OC)cc1)c1ccc(C(C)C)cc1` (stereo unspecified), the inhibition at 25 µM in assay [1] came out at 31.4%; in assay [2], 10.2%.

With `COc1ccc2c(c1)OC(O)(C(F)(F)C(F)(F)F)CC2=O` (stereo unspecified), the inhibition at 25 µM was 20.1% in assay [1] and 23.4% in assay [2].

In the case of `FC(F)(F)c1cccc(CNC2CCN(CCc3ccccc3)CC2)c1`, the inhibition at 25 µM was 2.96% in assay [1] and 22.8% in assay [2].

Turning to `Oc1ccc(Cl)cc1CNc1nc2ccccc2[nH]1`, the inhibition at 25 µM came to 4.53% in assay [1] and 38.6% in assay [2].

On to `CCOc1cc(Cl)c(C(C)NC(=O)c2ccccc2)cc1OCC` (stereo unspecified), for which the inhibition at 25 µM was 2.61% in assay [1] and 10.4% in assay [2].

Turning to `C=CC12CCN(CC1)C(C(O)c1ccnc3ccc(OC)cc13)C2` (stereo unspecified), the inhibition at 25 µM in assay [1] worked out at 18.8%; in assay [2], 27.2%.

With `Cc1ccc(-c2cc3nc4c(c(O)n3n2)CCCC4)cc1`, the inhibition at 25 µM in assay [1] came out at 21.5%; in assay [2], 14%.

Consider `O=C(c1ccccc1F)N(Cc1ccc(Cl)cc1)c1ccccn1`, for which the inhibition at 25 µM in assay [1] is 5.4%; in assay [2], 9.78%.

Consider `O=C(Nc1ccc(Cl)cc1)N1CCN(c2ccc3nncn3n2)CC1`, for which the figures for the inhibition at 25 µM in assay [1] and in assay [2] were -3.33% and 12.8%, respectively.

For the compound `c1ccc2cc3c(Nc4ccc(N5CCOCC5)cc4)ccnc3cc2c1`, the inhibition at 25 µM in assay [1] was 0.164%; in assay [2] it was 19.5%.

As for `CCCCNCC(O)(c1ccc(Cl)cc1)c1ccc(Cl)cc1`, the inhibition at 25 µM in assay [1] was 9.41%; in assay [2], 16.9%.

With `Cc1cc(C)c2c(c1)OCN(Cc1ccccc1Cl)C2`, the inhibition at 25 µM in assay [1] amounted to 12%; in assay [2], 9.78%.

For `COc1ccccc1NC1=C(N2CCCCC2)C(=O)c2ccccc2C1=O`, the inhibition at 25 µM in assay [1] amounted to 24.8%; in assay [2], 13.3%.

With `CCOC(=O)c1cn(CC)c2cc(N3CCCCC3)c(F)cc2c1=O`, the results for the inhibition at 25 µM in assay [1] and in assay [2] were 6.27% and 45%, respectively.

For the compound `CCCc1cc(O)c2c3c(c(=O)oc2c1)CN(C)CC3`, the inhibition at 25 µM in assay [1] was 14.1%; in assay [2], 16%.

Consider `Cc1cc(NC(=O)C2c3ccccc3C(=O)N(CC(C)C)C2c2cccs2)no1` (stereo unspecified), for which the inhibition at 25 µM was 13.1% in assay [1] and 12.2% in assay [2].

As to `CCn1c(SCC(=O)Nc2cc(C(F)(F)F)ccc2Cl)nc2ccccc2c1=O`, the inhibition at 25 µM in assay [1] worked out at 16%; in assay [2] it was 2.95%.

`Cc1ccc(Cn2c(N3CCC(C(=O)NCc4cccs4)CC3)nc3ccccc32)cc1`: the results for the inhibition at 25 µM in assay [1] and in assay [2] were 5.22% and 44.4%, respectively.

For the compound `O=C(Nc1ccc(Cl)cc1C(=O)Nc1ccncc1)c1ccc(Cl)cc1Cl`, the inhibition at 25 µM was 27.7% in assay [1] and 30% in assay [2].

Regarding `CCOc1ccc(-c2nonc2NC(=O)c2cccc(C)c2)cc1OCC`, the figures for the inhibition at 25 µM in assay [1] and in assay [2] were 9.24% and 2.34%, respectively.

Take `COc1ccc2c(=O)cc(C(Cl)(Cl)Cl)oc2c1`: the inhibition at 25 µM in assay [1] is 18.3%; in assay [2] it was 25.3%.

In the case of `CCOc1ccc(/C=C/c2nc(=O)c3ccccc3o2)cc1`, the inhibition at 25 µM was 12% in assay [1] and 18.9% in assay [2].

For `CC(O)(c1ccc(Cl)cc1)C(CN1CCCCC1)c1ccccc1` (stereo unspecified), the inhibition at 25 µM in assay [1] worked out at 11.2%; in assay [2] it was 8.72%.

Take `CCCCc1ccc(NS(=O)(=O)c2cc3c4c(c2)CCN4C(=O)CC3)cc1`: the inhibition at 25 µM in assay [1] is -2.45%; in assay [2], 7.2%.

`CCOc1ccccc1CNC(=O)C1c2ccccc2C(=O)N(CC(C)C)C1c1cccs1` (stereo unspecified): the inhibition at 25 µM in assay [1] is 10.8%; in assay [2], 43.5%.

With `COc1ccc(-c2nc3cc(Cc4ccc5[nH]c(-c6ccc(OC)cc6)nc5c4)ccc3[nH]2)cc1`, the values for the inhibition at 25 µM in assay [1] and in assay [2] were 29.3% and 41.7%, respectively.

As to `CCOC(=O)c1ccc2nc(-c3ccccc3)cc(O)c2c1`, the inhibition at 25 µM worked out at 15.5% in assay [1] and 14.6% in assay [2].

As to `Cc1cc(Nc2ccc(Cl)cc2)n2nc(C(F)(F)F)nc2n1`, the values for the inhibition at 25 µM in assay [1] and in assay [2] were 10.3% and 9.63%, respectively.

For `CCCCCCOC(=O)C1=C(C)NC(=O)NC1c1ccccc1F` (stereo unspecified), the inhibition at 25 µM in assay [1] came to 6.8%; in assay [2] it was 9.78%.

`COc1ccc(C2Sc3ccccc3N=C3C2=C(O)c2ccccc23)cc1` (stereo unspecified): the values for the inhibition at 25 µM in assay [1] and in assay [2] were -1.58% and 8.41%, respectively.

Take `Cc1ccc(N2C3c4ccccc4N(S(=O)(=O)c4ccc(C)cc4)C2c2ccccc2N3S(=O)(=O)c2ccc(C)cc2)cc1`: the inhibition at 25 µM in assay [1] came out at 18%; in assay [2], 4.16%.

For `CC1CCCCN1CCCNC(=O)c1ccc2c(c1)sc1nc(-c3ccc(F)cc3)cn12` (stereo unspecified), the inhibition at 25 µM in assay [1] was 9.76%; in assay [2], 33.2%.

On to `COc1ccc(NC(=O)C2c3ccccc3C(=O)N(CC(C)C)C2c2cccs2)cc1` (stereo unspecified), for which the inhibition at 25 µM in assay [1] is 3.3%; in assay [2], 4.77%.

For the compound `c1ccc(Cn2c(N=Nc3c(Nc4ccccc4)ccc4ccccc34)nc3ccccc32)cc1`, the values for the inhibition at 25 µM in assay [1] and in assay [2] were 18.7% and 14.9%, respectively.
